The subject of one assay is MDA-MB-231. The assay can be described thus: Antiproliferative activity against human MDA-MB-231 cells assessed as decrease in Ki-67 staining after 48 hrs by immunofluorescence staining. The format is functional. Also noted: scale not given: the % may be the effect or the level left.
Assay [1] is filed under the species Homo sapiens. The assay can be described thus: Potentiation of etoposide-induced antiproliferative activity against human MCF-7TN-R cells after 24 hrs by MTT assay. The format is functional, cell-based. A general note: Formazan colour is commonly taken as a measure of viable cells.
The species entered for assay [2] is Homo sapiens. The assay can be described thus: Induction of apoptosis in human MCF-7TN-R cells assessed as decrease in viable cells after 48 hrs by DAPI staining method relative to control. It is filed as functional, cell-based.
For assay [3], the species on record is Homo sapiens. The assay can be described thus: Potentiation of doxorubicin-induced antiproliferative activity against human MCF-7TN-R cells after 24 hrs by MTT assay. It is filed as functional, cell-based.
In another assay the test system is MDA-MB-468. Description: Antiproliferative activity against human MDA-MB-468 cells assessed as decrease in Ki-67 staining after 48 hrs by immunofluorescence staining. The format is functional. Also noted: scale not given: the % may be the effect or the level left.
Assay [4] is described as follows: Antiproliferative activity against human MCF-7TN-R cells assessed as decrease in Ki-67 staining after 48 hrs by immunofluorescence staining. The format is functional. Also on record: scale not given: the % may be the effect or the level left.

SMILES strings stand for the structures. Active and inactive are the calls of the source. No cut-off for these calls is given here.

With `CCCCCCCCCCCCCCNC(=O)[C@H](CO)/N=C/c1ccccc1`, the Activity with MDA-MB-231 was found to be 74.6%; in the assay on MDA-MB-468, 25.19%; in assay [4], 19.28%. For the same compound, the result in the assay listed under Homo sapiens [1], in the assay filed under Homo sapiens [2] and in the assay filed under Homo sapiens [3] was Active.
Turning to `CCCCCCCCCCCCC/C=C/[C@@H](O)[C@H](CO)NC(=O)CCCCCCC`, the Activity is on record as 46.6% with MDA-MB-231, 29.08% in the assay on MDA-MB-468 and 17.19% in assay [4]. Also, the result in the assay filed under Homo sapiens [1], in the assay filed under Homo sapiens [2] and in the assay listed under Homo sapiens [3] was Active.

These data come from ChEMBL document CHEMBL2010775, “Anti-proliferative effects of the novel ceramide analog (S)-2-(benzylideneamino)-3-hydroxy-N-tetrade-cylpropanamide in chemoresistant cancer” (2012).
